These results are taken from ChEMBL document CHEMBL1212936, “Discovery of 2-[1-(4-chlorophenyl)cyclopropyl]-3-hydroxy-8-(trifluoromethyl)quinoline-4-carboxylic acid (PSI-421), a P-selectin inhibitor with improved pharmacokinetic properties and oral efficacy in models of vascular injury” (J Med Chem, 2010).

The term AUC denotes concentration integrated over time. For orientation: half-life means how long it takes for the measured level to halve. By bioavailability is commonly meant the share of a dose that reaches the circulation, judged against a reference dose that is usually intravenous. Usually IC50 stands for the concentration that gives 50% inhibition. Broadly, the solubility is the dissolved amount per volume that the medium holds.

≈ marks a conversion by molar mass, not a printed value.

The nature of data set [1]: Clearance in Beagle dog at 2 mg/kg, iv and 10 mg/kg, po. The data set is classed as ADME, organism-based, Canis lupus familiaris. The settings on record: in vivo.
Data set [2] relates to Cynomolgus monkey. Nature of the data set: Dose normalized AUC in cynomolgus monkey measured per mg of plasma at 5 mg/kg, iv and po. Format: ADME, organism-based, Macaca fascicularis. Details: dose 5 mg/kg, route oral. The settings on record: in vivo.
Data set [3] is described as follows: Half life in Sprague-Dawley rat liver microsomes. The data set is classed as ADME, Microsome.
Data set [4] in a line: Oral bioavailability in C57B6 mouse at 10 mg/kg. Format: ADME, organism-based. The settings on record: in vivo.
For data set [5], the target named is T1, P-selectin glycoprotein ligand 1 (Homo sapiens, UniProt Q14242).
T1 sequence (Q14242 whole entry): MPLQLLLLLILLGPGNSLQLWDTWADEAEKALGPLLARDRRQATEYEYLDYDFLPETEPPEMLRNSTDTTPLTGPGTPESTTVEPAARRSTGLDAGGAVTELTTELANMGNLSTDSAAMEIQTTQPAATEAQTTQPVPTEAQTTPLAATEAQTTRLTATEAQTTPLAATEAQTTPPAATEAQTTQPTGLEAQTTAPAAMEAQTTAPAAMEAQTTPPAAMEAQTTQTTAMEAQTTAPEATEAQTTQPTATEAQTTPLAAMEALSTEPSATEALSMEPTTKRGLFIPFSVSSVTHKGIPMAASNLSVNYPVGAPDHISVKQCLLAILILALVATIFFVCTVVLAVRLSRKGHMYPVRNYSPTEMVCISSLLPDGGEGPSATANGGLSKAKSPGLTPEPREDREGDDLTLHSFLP
Nature of the data set: Inhibition of recombinant PSGL-1 by surface plasmon resonance assay.

Data set [6] in a line: Half life in cynomolgus monkey liver microsomes. Format: ADME, Macaca fascicularis, Microsome.
Data set [7] can be described thus: Aqueous solubility of the compound at pH 6.6. The settings on record: aqueous solution. The data set is classed as physicochemical.
Data set [8] is described as follows: Aqueous solubility of the compound at pH 9. Format: physicochemical. The settings on record: buffer.
The test system of data set [9] is Rattus norvegicus. Nature of the data set: Dose normalized AUC in Sprague-Dawley rat measured per mg of plasma at 3 mg/kg, iv and 10 mg/kg, po. The data set is classed as ADME, organism-based. The settings on record: in vivo.
Data set [10] is described as follows: Clearance in C57B6 mouse at 2 mg/kg, iv and 10 mg/kg, po. Format: ADME, organism-based. The settings on record: in vivo.
A short description of data set [11]: Oral bioavailability in Sprague-Dawley rat at 10 mg/kg. The data set is classed as ADME, organism-based. The settings on record: in vivo.
Data set [12] can be described thus: Oral bioavailability in cynomolgus monkey at 5 mg/kg. Format: ADME, organism-based, Macaca fascicularis. The settings on record: in vivo.
Data set [13] in a line: Aqueous solubility of the compound at pH 1. The settings on record: aqueous solution. Format: physicochemical.
The nature of data set [14]: Half life in Beagle dog liver microsomes. Format: ADME, Canis lupus familiaris, Microsome.
Data set [15] is described as follows: Aqueous solubility of the compound at pH 4.5. The data set is classed as physicochemical. The settings on record: aqueous solution.
Data set [16] concerns Mus musculus. Nature of the data set: Dose normalized AUC in C57B6 mouse measured per mg of plasma at 2 mg/kg, iv and 10 mg/kg, po. The data set is classed as ADME, organism-based. The settings on record: in vivo.
Data set [17] can be described thus: Oral bioavailability in Beagle dog at 10 mg/kg. The settings on record: in vivo. The data set is classed as ADME, organism-based, Canis lupus familiaris.
Data set [18] in a line: Clearance in Sprague-Dawley rat at 3 mg/kg, iv and 10 mg/kg, po. The data set is classed as ADME, organism-based. The settings on record: in vivo.
For data set [19], the system named is Canis familiaris. As to the kind of experiment: Dose normalized AUC in Beagle dog measured per mg of plasma at 2 mg/kg, iv and 10 mg/kg, po. The data set is classed as ADME, organism-based, Canis lupus familiaris. The settings on record: in vivo.
Data set [20] is described as follows: Aqueous solubility of the compound at pH 7.4. The data set is classed as physicochemical. The settings on record: buffer.
A short description of data set [21]: Half life in human liver microsomes. Format: ADME, Microsome.
A short description of data set [22]: Half life in C57B6 mouse liver microsomes. The data set is classed as ADME, Microsome. For orientation: Liver microsomes are a subcellular fraction often used to study metabolism.

As to `O=C(O)c1c(O)c(Cc2ccc(Cl)cc2)nc2c3c(ccc12)CCCC3` [PSI-697], the clearance in data set [1] amounted to 0.9 mL/min/kg; in data set [10], 11.6 mL/min/kg; in [18] it was 11 mL/min/kg. Also, the AUC amounted to 1202 ng·h/mL in data set [2], 440 ng·h/mL in data set [9], 1510 ng·h/mL in [16] and 11666 ng·h/mL in data set [19]. For the same compound, the half-life in data set [3] was 2 min; in data set [6], 44 min; in data set [14] it was greater than 60 min; in data set [21], greater than 60 min; in [22] it was 14 min. Moreover, the bioavailability was 100% in data set [4], 27% in data set [11], 40% in data set [12] and 58% in [17]. The IC50 in data set [5] turned out to be 150 µM. In addition, the solubility in [7] is less than 10 µg/mL; in [8], 75 µg/mL (≈ 204 µM); in data set [13], less than 1 µg/mL; in data set [15] it was less than 1 µg/mL; in [20] it was 90 µg/mL (≈ 245 µM).
